According to patent US7666909B2, “Enhancement of alcohol metabolism” (priority 2005, dated 2010):

Key:
[1] = tested on: mouse; details: cited from earlier work
[2] = Effect of D-glyceric acid on blood alcohol level in rats after intraperitoneal alcohol; assay type: in vivo, rat; details: on average, both fasted and nonfasted rats; versus same alcohol dose without D-GLAC
Protocol: 40 animals were fasted for 12 hours before the experiment, and 40 were fed normally. In the experiment, each rat received intraperitoneally an intoxicating single dose of alcohol (1.2 g/kg, 10% w/v) in physiological saline. […] The blood samples were then analysed by headspace gas chromatography.

[3] = tested on: ALDH; test: Formation of acetic acid from AcA by ALDH/NADH in the presence of D-GLAC (Reaction 6), gas chromatography; assay type: biochemical; details: 3 mmol D-GLAC, 0.3 mmol AcA, 5 units ALDH, NADH, phosphate buffer pH 6.865, stirred 6 hours; GC analysis
[4] = large doses (1-5 g/kg) taken together with the alcohol (Crownover et al. 1986); cited from earlier work
[5] = oral administration during alcohol drinking (Tabakoff et al. 1989); cited from earlier work

In the case of `CC=O` [AcA, acetaldehyde], the LD100 ([1]; acute toxicity) is listed as 0.75 g/kg.

For `O=C(O)C(O)CO` [D-GLAC, D-glyceric acid], the “Lower blood alcohol concentration than the corresponding control group” value [2] was 20% and the “Formation of acetic acid from AcA” value [3] was “acetic acid had been formed”.

For `CCO` [alcohol, ethyl alcohol], the LD70 ([1]; in vivo) is given as 6.5 g/kg.

In the case of `O=C(CO)[C@@H](O)[C@H](O)[C@H](O)CO` [fructose], the “Enhancement of alcohol elimination rate” value [4] is listed as “up to 20%”.

In the case of `CSCC[C@H](N)C(=O)O` [methionine], the “Reduction in blood AcA concentrations” value [5] is listed as 20%.
